pIC50: −log10 of the molar value.

The target of assay [1] is hOX1R (orexin-1 receptor) (Homo sapiens, UniProt O43613). Kind of assay: FLIPR Ca2+ Flux Assay, hOX1R. The assay is classed as cell-based. The following applies: CHO cells expressing the receptor; agonist Ala-6,12 human orexin-A. In general terms: Calcium flux is commonly read through the fluorescence of an indicator in the cells.
In the next assay the target is human orexin-2 receptor (Homo sapiens (Human), UniProt O43614). Kind of assay: FLIPR Ca2+ Flux Assay, hOX2R. The assay is classed as cell-based. Particulars: CHO cells expressing the receptor; agonist Ala-6,12 human orexin-A. As to the method: The utility of the compounds in accordance with the present invention as orexin receptor OX1R and/or OX2R antagonists may be readily determined without undue experimentation by methodology well known in the art, including the “FLIPR Ca^2+ Flux Assay” (Okumura et al., Biochem. Biophys. Res. Comm. 280:976-981, 2001). In a typical experiment the OX1 and OX2 receptor antagonistic activity of the compounds of the present invention was determined in accordance with the following experimental method. For intracellular calcium measurements, Chinese hamster ovary (CHO) cells expressing the rat orexin-1 receptor or the human orexin-2 receptor, are grown in Iscove's modified DMEM containing 2 mM L-glutamine, […], 1% hypoxanthine-thymidine supplement, 100 U/ml penicillin, 100 μg/ml streptomycin and 10% heat-inactivated fetal calf serum (FCS). The cells are seeded at 20,000 cells/well into Becton-Dickinson black 384-well clear bottom sterile plates coated with poly-D-lysine. All reagents were from GIBCO-Invitrogen Corp. The seeded plates are incubated overnight at 37° C. and 5% CO2. Ala-6,12 human orexin-A as the agonist is prepared as a 1 mM stock solution in 1% bovine serum albumin (BSA) and diluted in assay buffer (HBSS containing 20 mM HEPES, 0.1% BSA and 2.5 mM probenecid, pH7.4) for use in the assay at a final concentration of 70 pM. Test compounds are prepared as 10 mM stock solution in DMSO, then diluted in 384-well plates, first in DMSO, then assay buffer. On the day of the assay, cells are washed 3 times with 100 μl assay buffer and then incubated for 60 min (37° C., 5% CO2) in 60 μl assay buffer containing 1 μM Fluo-4AM ester, 0.02% pluronic acid, and 1% BSA. The dye loading solution is then aspirated and cells are washed 3 times with 100 μl assay buffer. 30 μl of that same buffer is left in each well. Within the Fluorescent Imaging Plate Reader (FLIPR, Molecular Devices), test compounds are added to the plate in a volume of 25 μl, incubated for 5 min and finally 25 μl of agonist is added. Fluorescence is measured for each well at 1 second intervals for 5 minutes and the height of each fluorescence peak is compared to the height of the fluorescence peak induced by […] Ala-6,12 orexin-A with buffer in place of antagonist. For each antagonist, IC50 value (the concentration of compound needed to inhibit 50% of the agonist response) is determined. Alternatively, compound potency can be assessed by a radioligand binding assay (described in Bergman et. al. Bioorg. Med. Chem. Lett. 2008, 18, 1425-1430) in which the inhibition constant (Ki) is determined in membranes prepared from CHO cells expressing either the OX1 or OX2 receptor. The intrinsic orexin receptor antagonist activity of a compound which may be used in the present invention may be determined by these assays.
Chain of human orexin-2 receptor (O43614 whole entry): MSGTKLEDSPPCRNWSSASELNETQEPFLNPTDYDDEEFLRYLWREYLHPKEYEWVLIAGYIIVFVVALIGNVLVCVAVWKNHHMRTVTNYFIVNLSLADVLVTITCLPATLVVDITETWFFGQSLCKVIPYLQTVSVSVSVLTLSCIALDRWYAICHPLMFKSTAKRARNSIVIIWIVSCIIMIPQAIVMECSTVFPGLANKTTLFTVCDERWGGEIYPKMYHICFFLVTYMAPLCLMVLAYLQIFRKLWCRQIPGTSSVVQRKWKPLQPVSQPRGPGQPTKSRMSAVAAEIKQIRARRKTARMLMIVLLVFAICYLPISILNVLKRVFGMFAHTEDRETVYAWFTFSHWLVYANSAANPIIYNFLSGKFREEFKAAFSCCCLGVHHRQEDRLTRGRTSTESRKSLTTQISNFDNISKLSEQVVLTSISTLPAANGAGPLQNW

As usually defined, the pIC50 is −log10 of the IC50, conventionally taken in molar units. A lower pIC50 goes with a high IC50. In the case of `C[C@@H]1CC[C@@H](c2noc(C(C)(C)O)n2)CN1C(=O)c1ccccc1OC(F)F` [Example 18, 2-{3-[(3R,6R)-1-{[2-(difluoromethoxy)phenyl]carbonyl}-6-methylpiperidin-3-yl]-1,2,4-oxadiazol-5-yl}propan-2-ol], the figures for the pIC50 (in assay [1]; at human orexin-2 receptor) were less than 5.00 and 6.85, respectively. On the same counts, the results for `C[C@@H]1CC[C@@H](c2noc(C3CC3)n2)CN1C(=O)c1ccccc1-n1nccn1` [Example 1, (2R,5R)-5-(5-Cyclopropyl-1,2,4-oxadiazol-3-yl)-2-methyl-1-{[2-(2H-1,2,3-triazol-2-yl)phenyl]carbonyl}piperidine] are less than 5.00 and 6.48. On the same counts, the results for `CCc1nc([C@@H]2CC[C@@H](C)N(C(=O)c3ccccc3-n3nccn3)C2)no1` [Example 3, (2R,5R)-5-(5-ethyl-1,2,4-oxadiazol-3-yl)-2-methyl-1-{[2-(2H-1,2,3-triazol-2-yl)phenyl]carbonyl}piperidine] are less than 5.00 and 6.50. On the same counts, the results for `C[C@@H]1CC[C@@H](c2noc(C(C)(C)O)n2)CN1C(=O)c1cscc1-n1nccn1` [Example 14, 2-{3-[(3R,6R)-6-methyl-1-{[4-(2H-1,2,3-triazol-2-yl)thiophen-3-yl]carbonyl}piperidin-3-yl]-1,2,4-oxadiazol-5-yl}propan-2-ol] are less than 5.00 and 7.32. For `CC(C)c1noc([C@@H]2CC[C@@H](C)N(C(=O)c3ccccc3-n3nccn3)C2)n1` [Example 26, (2R,5R)-2-methyl-5-[3-(1-methylethyl)-1,2,4-oxadiazol-5-yl]-1-{[2-(2H-1,2,3-triazol-2-yl)phenyl]carbonyl}piperidine], the negative-log IC50 (pIC50) in assay [1] is 5.35; on human orexin-2 receptor, 6.91. In the case of `C[C@@H]1CC[C@@H](c2nsc(C(C)(C)O)n2)CN1C(=O)c1cscc1-c1ncccn1` [Example 42, 2-(3-{(3R,6R)-6-methyl-1-[(4-pyrimidin-2-ylthiophen-3-yl)carbonyl]piperidin-3-yl}-1,2,4-thiadiazol-5-yl)propan-2-ol], the pIC50 in assay [1] is less than 5.00; at human orexin-2 receptor it was 7.08. Turning to `C[C@@H]1CC[C@@H](c2nsc(C(C)(C)O)n2)CN1C(=O)c1ccccc1OC(F)(F)F` [Example 39, 2-{3-[(3R,6R)-6-methyl-1-{[2-(trifluoromethoxy)phenyl]carbonyl}piperidin-3-yl]-1,2,4-thiadiazol-5-yl}propan-2-ol], the pIC50 in assay [1] is 5.19; on human orexin-2 receptor, 7.28.

With `C[C@@H]1CC[C@@H](c2nc(C(C)(C)O)no2)CN1C(=O)c1ccccc1-n1nccn1` [Example 27, 2-{5-[(3R,6R)-6-methyl-1-{[2-(2H-1,2,3-triazol-2-yl)phenyl]carbonyl}piperidin-3-yl]-1,2,4-oxadiazol-3-yl}propan-2-ol], the pIC50 is less than 5.00 in assay [1] and 7.12 at human orexin-2 receptor. For the molecule `C[C@@H]1CC[C@@H](c2noc(C(C)(C)O)n2)CN1C(=O)c1ccccc1-n1nccn1` [Example 5, 2-{3-[(3R,6R)-6-Methyl-1-{[2-(2H-1,2,3-triazol-2-yl)phenyl]carbonyl}piperidin-3-yl]-1,2,4-oxadiazol-5-yl}propan-2-ol], the figures for the pIC50 (in assay [1]; on human orexin-2 receptor) were 5.50 and 7.72, respectively. On the same counts, the results for `C[C@@H]1CC[C@@H](c2noc(C(C)(C)O)n2)CN1C(=O)c1ccccc1OC(F)(F)F` [Example 15, 2-{3-[(3R,6R)-6-methyl-1-{[2-(trifluoromethoxy)phenyl]carbonyl}piperidin-3-yl]-1,2,4-oxadiazol-5-yl}propan-2-ol] are less than 5.00 and 7.07. On the same counts, the results for `C[C@@H]1CC[C@@H](c2noc([C@](C)(O)C(F)(F)F)n2)CN1C(=O)c1ccccc1-n1nccn1` [Example 6, (2S)-1,1,1-trifluoro-2-{3-[(3R,6R)-6-methyl-1-{[2-(2H-1,2,3-triazol-2-yl)phenyl]carbonyl}piperidin-3-yl]-1,2,4-oxadiazol-5-yl}propan-2-ol] are 6.54 and 7.74. Take `C[C@@H]1CC[C@@H](c2noc(C(C)(C)O)n2)CN1C(=O)c1ccccc1-c1ncccn1` [Example 23, 2-(3-{(3R,6R)-6-Methyl-1-[(2-pyrimidin-2-ylphenyl)carbonyl]piperidin-3-yl}-1,2,4-oxadiazol-5-yl)propan-2-ol]: the values for the negative logarithm of the IC50 (pIC50) (in assay [1]; on human orexin-2 receptor) were less than 5.00 and 7.20, respectively. With `C[C@@H]1CC[C@@H](c2noc(C(C)(C)O)n2)CN1C(=O)c1ccsc1-c1ncccn1` [Example 22, 2-(3-{(3R,6R)-6-methyl-1-[(2-pyrimidin-2-ylthiophen-3-yl)carbonyl]piperidin-3-yl}-1,2,4-oxadiazol-5-yl)propan-2-ol], the pIC50 in assay [1] is less than 5.00; on human orexin-2 receptor, 7.21. For the molecule `C[C@@H]1CC[C@@H](c2noc([C@@](C)(O)C(F)(F)F)n2)CN1C(=O)c1ccccc1-n1nccn1` [Example 10, (2R)-1,1,1-Trifluoro-2-{3-[(3R,6R)-6-methyl-1-{[2-(2H-1,2,3-triazol-2-yl)phenyl]carbonyl}piperidin-3-yl]-1,2,4-oxadiazol-5-yl}propan-2-ol], the negative-log IC50 (pIC50) was 5.65 in assay [1] and 7.01 at human orexin-2 receptor.

`C[C@@H]1CC[C@@H](c2noc(C(C)(C)O)n2)CN1C(=O)c1cccnc1OCC(F)(F)F` [Example 16, 2-{3-[(3R,6R)-6-methyl-1-{[2-(2,2,2-trifluoroethoxy)pyridin-3-yl]carbonyl}piperidin-3-yl]-1,2,4-oxadiazol-5-yl}propan-2-ol]: the negative-log IC50 (pIC50) in assay [1] is less than 5.00; on human orexin-2 receptor, 7.06. As for `C[C@@H]1CC[C@@H](c2nsc(C(C)(C)O)n2)CN1C(=O)c1ccccc1CS(C)(=O)=O` [Example 33, 2-{3-[(3R,6R)-6-methyl-1-({2-[(methylsulfonyl)methyl]phenyl}carbonyl)piperidin-3-yl]-1,2,4-thiadiazol-5-l}propan-2-ol], the results for the negative logarithm of the IC50 (pIC50) (in assay [1]; at human orexin-2 receptor) were less than 5.00 and 6.71, respectively.

With `C[C@@H]1CC[C@@H](c2nsc(C(C)(C)O)n2)CN1C(=O)c1ccsc1-c1ncccn1` [Example 40, 2-(3-{(3R,6R)-6-Methyl-1-[(2-pyrimidin-2-ylthiophen-3-yl)carbonyl]piperidin-3-yl}-1,2,4-thiadiazol-5-yl)propan-2-ol], the pIC50 in assay [1] was 5.00; on human orexin-2 receptor, 7.30. On the same counts, the results for `CCOc1ccccc1C(=O)N1C[C@H](c2nsc(C(C)(C)O)n2)CC[C@H]1C` [Example 37, 2-(3-{(3R,6R)-1-[(2-ethoxyphenyl)carbonyl]-6-methylpiperidin-3-yl}-1,2,4-thiadiazol-5-yl)propan-2-ol] are less than 5.00 and 6.84. As for `C[C@@H]1CC[C@@H](c2nc(C(C)(C)C)no2)CN1C(=O)c1ccccc1-n1nccn1` [Example 25, (2R,5R)-5-(3-tert-Butyl-1,2,4-oxadiazol-5-yl)-2-methyl-1-{[2-(2H-1,2,3-triazol-2-yl)phenyl]carbonyl}piperidine], the figures for the negative-log IC50 (pIC50) (in assay [1]; on human orexin-2 receptor) were 5.94 and 7.06, respectively. On the same counts, the results for `C[C@@H]1CC[C@@H](c2noc(C(C)(C)O)n2)CN1C(=O)c1ccccc1-n1ncnn1` [Example 12, 2-{3-[(3R,6R)-6-methyl-1-{[2-(2H-tetrazol-2-yl)phenyl]carbonyl}piperidin-3-yl]-1,2,4-oxadiazol-5-yl}propan-2-ol] are less than 5.00 and 6.74. On the same counts, the results for `C[C@@H]1CC[C@@H](c2nsc(C(C)(C)O)n2)CN1C(=O)c1ccccc1-c1ncccn1` [Example 41, 2-(3-{(3R,6R)-6-Methyl-1-[(2-pyrimidin-2-ylphenyl)carbonyl]piperidin-3-yl}-1,2,4-thiadiazol-5-yl)propan-2-ol] are less than 5.00 and 7.32.

In turn, `C[C@@H]1CC[C@@H](c2nsc(C(C)(C)O)n2)CN1C(=O)c1cccnc1OCC(F)(F)F` [Example 38, 2-{3-[(3R,6R)-6-methyl-1-{[2-(2,2,2-trifluoroethoxy)pyridin-3-yl]carbonyl}piperidin-3-yl]-1,2,4-thiadiazol-5-yl}propan-2-ol] showed a pIC50 at human orexin-2 receptor of 6.91.
